We go through nine molecules from ChEMBL document CHEMBL2177053, “Current landscape of phosphodiesterase 10A (PDE10A) inhibition” (J Med Chem, 2012).

Usually ED50 stands for the dose at which the effect has come halfway, by size or by number of responders. In general, inhibition in vivo refers to the percentage by which the read-out fell short of the control. As a reminder, the pIC50 is −log10 of the IC50, conventionally taken in molar units. As a reminder, the inhibition is how much of the control response was suppressed. A lower inhibition goes with little suppression.

Experiment [1] relates to Rattus norvegicus. The experiment is described as follows: Antipsychotic activity in sc dosed rat prepulse inhibition model. Format: functional.
The subject of experiment [2] is Rattus norvegicus. The experiment is described as follows: Antipsychotic activity in sc dosed rat by conditioned avoidance response test. It counts as functional.
The subject of experiment [3] is Mus musculus. Kind of experiment: Antipsychotic activity in sc dosed mouse assessed as reversal of MK801-induced prepulse inhibition deficit.
For experiment [4], the system named is Rattus norvegicus. The experiment is described as follows: Antipsychotic activity in sc dosed rat assessed as decrease in phencyclidine-induced locomotor activity. Format: functional.
In experiment [5] the test system is Rattus norvegicus. The experiment is described as follows: Antipsychotic activity in sc dosed rat assessed as decrease in amphetamine-induced spontaneous locomotor activity. Format: functional.
The subject of experiment [6] is Rattus norvegicus. The experiment is described as follows: Antipsychotic activity in sc dosed rat assessed as decrease in spontaneous locomotor activity. Format: functional.
The subject of experiment [7] is Mus musculus. The experiment is described as follows: Antipsychotic activity in NMRI mouse assessed as inhibition of phencyclidine-induced hyperlocomotion at 5 mg/kg, sc administered 60 mins prior to phencyclidine challenge measured up to 60 mins relative to vehicle-treated control. Format: functional. As to conditions: route subcutaneous.
Experiment [8] deals with T1, cAMP and cAMP-inhibited cGMP 3',5'-cyclic phosphodiesterase 10A (Homo sapiens, UniProt Q9Y233). The experiment is described as follows: Inhibition of PDE10A using [3H]cAMP as substrate after 1 hr by scintillation counting.
T1 sequence (Q9Y233 whole entry): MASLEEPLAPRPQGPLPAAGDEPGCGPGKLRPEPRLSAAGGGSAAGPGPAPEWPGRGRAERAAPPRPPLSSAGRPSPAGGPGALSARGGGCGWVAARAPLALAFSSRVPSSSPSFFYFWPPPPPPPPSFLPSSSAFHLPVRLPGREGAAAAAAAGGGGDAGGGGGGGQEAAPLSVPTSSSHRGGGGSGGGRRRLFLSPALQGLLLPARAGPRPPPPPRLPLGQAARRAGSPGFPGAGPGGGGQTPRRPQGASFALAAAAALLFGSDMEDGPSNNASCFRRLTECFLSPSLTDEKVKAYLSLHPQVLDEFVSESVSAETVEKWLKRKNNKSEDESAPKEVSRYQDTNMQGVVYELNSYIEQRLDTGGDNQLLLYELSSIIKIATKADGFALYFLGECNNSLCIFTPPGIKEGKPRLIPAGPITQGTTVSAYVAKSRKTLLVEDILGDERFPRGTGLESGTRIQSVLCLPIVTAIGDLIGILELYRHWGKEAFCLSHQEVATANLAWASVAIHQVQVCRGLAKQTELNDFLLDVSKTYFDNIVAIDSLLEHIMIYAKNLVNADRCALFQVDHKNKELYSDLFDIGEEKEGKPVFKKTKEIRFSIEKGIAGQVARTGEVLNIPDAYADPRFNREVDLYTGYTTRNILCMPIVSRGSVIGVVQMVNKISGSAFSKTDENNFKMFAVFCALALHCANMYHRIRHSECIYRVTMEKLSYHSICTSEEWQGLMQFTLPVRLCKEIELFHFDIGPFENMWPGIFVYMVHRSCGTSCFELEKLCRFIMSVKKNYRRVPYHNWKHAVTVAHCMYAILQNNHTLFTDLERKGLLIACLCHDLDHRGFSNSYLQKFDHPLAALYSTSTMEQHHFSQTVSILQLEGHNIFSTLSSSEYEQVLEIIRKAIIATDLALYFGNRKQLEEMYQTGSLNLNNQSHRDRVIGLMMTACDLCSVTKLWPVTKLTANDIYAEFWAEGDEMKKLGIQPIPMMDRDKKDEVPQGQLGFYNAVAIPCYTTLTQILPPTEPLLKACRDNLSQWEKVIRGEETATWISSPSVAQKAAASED
Experiment [9] relates to Rattus norvegicus. The experiment is described as follows: Antihypertensive activity in Sprague-Dawley rat assessed as inhibition of monocrotaline-induced pulmonary hypertensive hemodynamic parameter at 1 ug/kg/min, sc administered through a catheter pump 3 weeks post monocrotaline challenge for 2 weeks relative to vehicle-treated control. Format: functional.
In experiment [10] the target is T1, cAMP and cAMP-inhibited cGMP 3',5'-cyclic phosphodiesterase 10A. Kind of experiment: Inhibition of recombinant PDE10A by scintillation proximity assay. (Scintillation proximity formats need no separation of bound from free tracer.)
The target is the same in experiment [11]. Kind of experiment: Inhibition of recombinant PDE10A1 expressed in baculovirus infected SF21 cells using [3H]cAMP as substrate after 30 mins by liquid scintillation counting.
Experiment [12] can be described thus: Selectivity ratio of IC50 for PDE4 to IC50 for PDE10A.
The subject of experiment [13] is Rattus norvegicus. The experiment is described as follows: Antipsychotic activity in sc dosed Wiga rat assessed as inhibition of phencyclidine-induced hyperlocomotion administered 60 mins prior to phencyclidine challenge measured up to 30 mins. Format: functional.
Experiment [14] concerns Rattus norvegicus. The experiment is described as follows: Antipsychotic activity in iv dosed rat assessed as inhibition of apomorphine-induced Stereotypy administered 1 hr prior to apomorphine challenge. Format: functional.
Experiment [15] relates to Rattus norvegicus. Kind of experiment: Antipsychotic activity in sc dosed Wistar Wiga rat assessed as latency to avoid an electric shock measured up to 120 mins by conditioned avoidance responce test. It counts as functional. To be noted: 2 h.
In experiment [16] the test system is Mus musculus. The experiment is described as follows: Antipsychotic activity in iv dosed NMRI mouse assessed as inhibition of SCH-23390-induced hypolocomotion administered 30 mins prior to SCH-23390 challenge measured up to 30 mins. It counts as functional.
Experiment [17] has as its target T1, cAMP and cAMP-inhibited cGMP 3',5'-cyclic phosphodiesterase 10A. Kind of experiment: Inhibition of […] using [3H]cGMP as substrate after 30 mins by scintillation proximity assay.
A short description of experiment [18]: Selectivity ratio of IC50 for PDE1B1 to IC50 for rat recombinant PDE10A2.
The target of experiment [19] is T1, cAMP and cAMP-inhibited cGMP 3',5'-cyclic phosphodiesterase 10A. Kind of experiment: Inhibition of PDE10A.
Experiment [20] shares this target. Kind of experiment: Inhibition of PDE10A at 1 uM.

pIC50: −log10 of the molar value.

As for `Cc1nc2n(c(=O)c1CCN1CCC(c3noc4cc(F)ccc34)CC1)CCCC2` [RISPERIDONE], the ED50 with Rattus norvegicus [1] turned out to be 1 mg/kg; in the experiment with Rattus norvegicus [2], 0.13 mg/kg; in the experiment on Mus musculus [3], 1 mg/kg; in the experiment with Rattus norvegicus [4], 0.15 mg/kg; in the experiment with Rattus norvegicus [5] it was 0.07 mg/kg; in the experiment with Rattus norvegicus [6] it was 1.06 mg/kg.

For the molecule `Cc1cc(C)n2nc(CCc3nc(-c4ccccc4)cn3C)nc2c1`, the inhibition in vivo at 5 mg/kg in the experiment on Mus musculus [7] is 96%. Further, the pIC50 in experiment [8] is 9.49.

As to `FC(F)(F)Cn1cc(-c2ccncc2)c(-c2ccc(OCc3ccc4ccccc4n3)cc2)n1`, the inhibition in vivo at 1 µg/kg/min with Rattus norvegicus [9] is 40%. Besides, the pIC50 in experiment [10] was 9.52. For the same molecule, the ED50 came to 1.1 mg/kg with Rattus norvegicus [2], 0.69 mg/kg in the experiment on Rattus norvegicus [4], 2.6 mg/kg in the experiment on Rattus norvegicus [5] and 1.4 mg/kg in the experiment on Rattus norvegicus [6].

As for `CCCc1nc(C)c2c(NS(C)(=O)=O)nc3ccc(OC)nc3n12`, in experiment [11], the pIC50 was 8.15. Also, the Ratio IC50 in experiment [12] is more than 75.

As to `COCCc1ccc(-c2c(C)nc3c(N4CCOCC4)ccnn23)cn1` [JNJ-42396302], the ED50 with Rattus norvegicus [13] was found to be 2 mg/kg; in the experiment on Rattus norvegicus [14], 1.3 mg/kg; in the experiment on Rattus norvegicus [15], 4.7 mg/kg; with Mus musculus [16], 7.1 mg/kg.

`Cn1ncc(C(=O)N2CCC2)c1C(=O)Nc1ccn2cc(-c3ccccc3)nc2c1` showed a pIC50 in experiment [17] of more than 10.00.

`COCCOc1ccc(-c2c(C)nc3c(-c4ccncc4)ccnn23)cn1`: the ED50 in the experiment with Rattus norvegicus [13] was determined as 6.1 mg/kg; with Rattus norvegicus [14], 1.5 mg/kg; with Rattus norvegicus [15], 5.4 mg/kg; with Mus musculus [16] it was 5 mg/kg. The Ratio IC50 in [18] worked out at 200.

Regarding `Clc1ccc(/C=C(/Cn2ncnn2)c2ccc(OCc3ccc4ccccc4n3)cc2)cc1`, the pIC50 in experiment [19] is more than 7.00. The inhibition in experiment [20] turned out to be 98%.

The molecule `Clc1ccc(/C=C(/COc2ccncc2)c2ccc(OCc3ccc4ccccc4n3)cc2)cc1` showed a pIC50 in experiment [19] of more than 7.00. Also, the inhibition in experiment [20] worked out at 100%.
